Structures can show the parent of a compound that is named as a salt. Where two headings read alike, the source gives them in different places.
Tests used:
[1] = test system: Ae. aegypti L4-stage larvae (Liverpool strain); test: whole plant or invertebrate; assay type: in vivo, Aedes aegypti; conditions: single dose-point 400 µM, 24 hours post-treatment
Protocol: Single dose-point and dose response in vivo mosquito bioassays were used to assess the toxicity of selected AaDOP2 receptor antagonists identified in the chemical screen. Larvae of Ae. aegypti (Liverpool strain) were reared under standard laboratory conditions on a 12 hr day/night cycle at 75% RH and 28°C, and bioassays were conducted at room temperature (22–24°C). Larvae were transferred from standard rearing trays into six-well tissue culture plates (Corning, Inc. Corning, NY) using a small plastic pipette. Ten L4-stage larvae were included per well, each containing five ml of de-ionized water and the assigned drug concentration. Controls were conducted similarly but lacked a drug treatment. Bioassays employed a double-blind experimental design, and percent mortality was scored 24 hr following administration of drugs. Single dose-point assays were conducted using 400 µM drug and included three biological replicates each consisting of 50–100 larvae. Dose-response assays were conducted using five doses (400, 200, 100, 50, and 25 µM) of the compounds suspended in water, with water alone as a control. Five technical replicates, each including 10 larvae, were performed per dose, and the assay was repeated three times.

AaDOP2 [2] = molecular target: T1, AaDOP2 (Aedes aegypti, UniProt H6D5H2); test: cell-based
T1 sequence (H6D5H2 1-476): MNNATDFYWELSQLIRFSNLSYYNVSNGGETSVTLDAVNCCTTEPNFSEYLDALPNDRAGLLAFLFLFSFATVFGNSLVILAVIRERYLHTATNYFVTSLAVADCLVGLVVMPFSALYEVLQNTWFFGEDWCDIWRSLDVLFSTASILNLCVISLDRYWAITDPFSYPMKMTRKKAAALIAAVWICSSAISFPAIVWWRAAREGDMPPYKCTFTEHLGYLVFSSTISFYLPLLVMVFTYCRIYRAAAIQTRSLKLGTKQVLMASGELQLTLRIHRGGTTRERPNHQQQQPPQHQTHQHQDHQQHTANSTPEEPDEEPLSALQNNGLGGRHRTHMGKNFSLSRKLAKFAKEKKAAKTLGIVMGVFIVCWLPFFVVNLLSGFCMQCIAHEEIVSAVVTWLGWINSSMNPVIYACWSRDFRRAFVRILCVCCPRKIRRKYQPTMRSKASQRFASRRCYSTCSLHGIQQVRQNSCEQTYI

AaDOP1 = AaDOP1 (Aedes aegypti, UniProt H6D5H1); test: CRELuc reporter dose-response in HEK293 cells stably expressing AaDOP1; assay type: cell-based
Sequence of AaDOP1 (H6D5H1 entry or part of it): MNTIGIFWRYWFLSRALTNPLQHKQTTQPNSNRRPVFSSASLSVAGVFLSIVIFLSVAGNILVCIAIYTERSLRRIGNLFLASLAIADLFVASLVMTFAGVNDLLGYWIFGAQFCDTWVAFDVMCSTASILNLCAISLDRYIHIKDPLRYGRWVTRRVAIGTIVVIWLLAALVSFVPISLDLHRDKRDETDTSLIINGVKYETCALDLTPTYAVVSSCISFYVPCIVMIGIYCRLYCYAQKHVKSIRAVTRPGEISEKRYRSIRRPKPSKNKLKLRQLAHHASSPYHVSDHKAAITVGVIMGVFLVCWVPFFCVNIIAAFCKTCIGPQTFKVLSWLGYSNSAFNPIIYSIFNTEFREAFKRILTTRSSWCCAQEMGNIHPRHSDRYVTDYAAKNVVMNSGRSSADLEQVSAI

AaDOP2 [3] = molecular target: T1, AaDOP2; test: AaDOP2 antagonist screen of the LOPAC1280 library (HEK-CRELuc-Aadop2 cells, luminescence); assay type: cell-based; conditions: for inhibition at 10 µM: read-out: % of the SCH23390 effect (percent inhibition of receptor response relative to the SCH23390 control)
AaDOP2 [4] = molecular target: T1, AaDOP2; test: cell-based; remark: listed apart in the source
[5] = HEK293 cells stably expressing CRELuc reporter and AaDOP1, read-out: EC50 values AaDOP1
[6] = 10 µM compound, 300 nM dopamine, 2 hr, hit = compound effect <20

## CN(C)CCC=C1c2ccccc2COc2ccccc21 [Compound 386, Doxepin hydrochloride]
[1]
  average mortality: 72%

## Oc1cc2c(cc1O)C(c1ccccc1)CNCC2 (stereo not shown) [SKF 38393]
AaDOP2 [2]
  EC50: ≥ 10 µM
AaDOP1; [5]
  EC50: 0.31 ± 0.046 µM

## NCCc1c[nH]cn1 [Compound 596, Histamine dihydrochloride]
AaDOP2 [2]
  EC50: ≥ 10 µM
AaDOP1; HEK293 cells stably expressing CRELuc reporter and AaDOP1, ≥10 µM considered lacking intrinsic activity, read-out: EC50 values AaDOP1
  EC50: ≥ 10 µM

## CNC[C@H](O)c1ccc(O)c(O)c1 [Compound 491, (-)-Epinephrine bitartrate]
AaDOP2 [2]
  EC50: ≥ 10 µM

## Oc1cc(O)cc(/C=C/c2ccc(O)c(O)c2)c1 [Compound 916, Piceatannol, reference compound]
AaDOP2 [3]
  Compound effect (percent receptor signaling in presence of test compound, relative lux units relative to the SCH23390 control): 2
  inhibition at 10 µM: 98%
AaDOP2 [4]
  IC50: ≥ 10 µM

## O=C(Nc1ccc([N+](=O)[O-])cc1Cl)c1cc(Cl)ccc1O [Compound 847, Niclosamide, reference compound]
AaDOP2 [3]
  Compound effect (percent receptor signaling in presence of test compound, relative lux units relative to the SCH23390 control): 5
  inhibition at 10 µM: 95%
AaDOP2 [4]
  IC50: ≥ 10 µM

## OCCN1CCN(CC/C=C2/c3ccccc3Sc3ccc(C(F)(F)F)cc32)CC1 [Compound 541, cis-(Z)-Flupenthixol dihydrochloride, reference compound]
AaDOP2 [3]
  inhibition at 10 µM: 88%
AaDOP2 [4]
  IC50: 0.02 ± 0.0054 µM

## NCCc1ccc(O)cc1 [Compound 1162, 4-Hydroxyphenethylamine hydrochloride]
AaDOP2 [2]
  EC50: ≥ 10 µM
AaDOP1
  EC50: ≥ 10 µM

## Oc1ccc(/C=C/c2cc(O)cc(O)c2)cc1 [Compound 1048, Resveratrol, reference compound]
AaDOP2 [3]
  Compound effect (percent receptor signaling in presence of test compound, relative lux units relative to the SCH23390 control): 11
  inhibition at 10 µM: 89%
AaDOP2 [4]
  IC50: ≥ 10 µM

## NCCc1c[nH]c2ccc(O)cc12 [Compound 613, Serotonin hydrochloride]
AaDOP2 [2]
  EC50: ≥ 10 µM
AaDOP1
  EC50: ≥ 10 µM
AaDOP2 [3]
  Compound effect (percent receptor signaling in presence of test compound, relative lux units relative to the SCH23390 control): 110

## NC[C@H](O)c1ccc(O)c(O)c1 [Compound 106, L(-)-Norepinephrine bitartrate]
AaDOP2 [2]
  EC50: ≥ 10 µM
AaDOP1
  EC50: 0.76 ± 0.18 µM
AaDOP2 [3]
  Compound effect (percent receptor signaling in presence of test compound, relative lux units relative to the SCH23390 control): 115

## Oc1cc2c(cc1O)[C@H]1c3ccccc3CN[C@@H]1CC2 (racemic) [Dihydrexidine, dihydrexidine]
AaDOP2 [2]
  EC50: 0.29 ± 0.054 µM
AaDOP1; [5]
  EC50: 0.0069 ± 0.0015 µM

## NCC(CC(=O)O)c1ccc(Cl)cc1 (racemic) [Compound 177, (±)-Baclofen]
AaDOP2 [3]; [6]
  Compound effect (percent receptor signaling in presence of test compound, relative lux units relative to the SCH23390 control): 111%

## C=CCN1CC[C@]23c4c5ccc(O)c4O[C@H]2/C(=N/NC(=O)c2ccccc2)CC[C@@]3(O)[C@H]1C5 [Compound 889, Naloxone benzoylhydrazone]
AaDOP2 [3]
  Compound effect (percent receptor signaling in presence of test compound, relative lux units relative to the SCH23390 control): 101

## CN1CCC(=C2c3ccccc3CC(=O)c3sccc32)CC1 [Compound 687, Ketotifen fumarate]
AaDOP2 [3]
  Compound effect (percent receptor signaling in presence of test compound, relative lux units relative to the SCH23390 control): 4
  inhibition at 10 µM: 96%

## CCCCCCCCCCCCCC(=O)O[C@@H]1[C@@H](C)[C@@]2(O)[C@@H](C=C(CO)C[C@]3(O)C(=O)C(C)=C[C@@H]23)[C@@H]2C(C)(C)[C@]12OC(C)=O [Compound 976, Phorbol 12-myristate 13-acetate]
AaDOP2 [3]
  Compound effect (percent receptor signaling in presence of test compound, relative lux units relative to the SCH23390 control): 12
  inhibition at 10 µM: 88%

## CCCN(CCC)CCc1ccc(O)c(O)c1 [Compound 439, Dipropyldopamine hydrobromide]
AaDOP2 [3]
  Compound effect (percent receptor signaling in presence of test compound, relative lux units relative to the SCH23390 control): 106

## O=C(O)[C@H]1CCCN[C@H]1C(=O)O (racemic) [Compound 985, (±)-cis-Piperidine-2,3-dicarboxylic acid]
AaDOP2 [3]
  Compound effect (percent receptor signaling in presence of test compound, relative lux units relative to the SCH23390 control): 108

## O=c1cc(-c2ccc(O)cc2)oc2cc(O)cc(O)c12 [Compound 39, Apigenin]
AaDOP2 [3]
  Compound effect (percent receptor signaling in presence of test compound, relative lux units relative to the SCH23390 control): 21

## CCCCC/C=C\C[C@@H](O)/C=C/c1cccc(C[C@@H](O)CCCCO)n1 [Compound 1232, U-75302]
AaDOP2 [3]
  Compound effect (percent receptor signaling in presence of test compound, relative lux units relative to the SCH23390 control): 107

## CCCCc1oc2ccccc2c1C(=O)c1cc(I)c(OCCN(CC)CC)c(I)c1 [Compound 93, Amiodarone hydrochloride]
AaDOP2 [3]
  Compound effect (percent receptor signaling in presence of test compound, relative lux units relative to the SCH23390 control): 104

## CN1CCN(C(=O)OC2c3nccnc3C(=O)N2c2ccc(Cl)cn2)CC1 (stereo not shown) [Compound 1279, Zopiclone]
AaDOP2 [3]
  Compound effect (percent receptor signaling in presence of test compound, relative lux units relative to the SCH23390 control): 99

## CC(C)NCC(O)COc1cccc2ccccc12.Cl (racemic) [Compound 922, (±)-Propranolol hydrochloride]
AaDOP2 [3]
  Compound effect (percent receptor signaling in presence of test compound, relative lux units relative to the SCH23390 control): 102

## Cc1ccc(N(CC2=NCCN2)c2cccc(O)c2)cc1 [Compound 971, Phentolamine mesylate]
AaDOP2 [3]
  Compound effect (percent receptor signaling in presence of test compound, relative lux units relative to the SCH23390 control): 42

## CC[C@H](C)C(=O)O[C@H]1CCC=C2C=C[C@H](C)[C@H](CC[C@@H]3C[C@@H](O)CC(=O)O3)[C@H]21 [Compound 748, Mevastatin]
AaDOP2 [3]
  Compound effect (percent receptor signaling in presence of test compound, relative lux units relative to the SCH23390 control): 106

## Cc1cn([C@H]2C=C[C@@H](CO)O2)c(=O)[nH]c1=O [Compound 362, 2',3'-didehydro-3'-deoxythymidine]
AaDOP2 [3]
  Compound effect (percent receptor signaling in presence of test compound, relative lux units relative to the SCH23390 control): 99

## Cl.NCCCCNS(=O)(=O)c1ccc2c(Cl)cccc2c1 [Compound 18, N-(4-Aminobutyl)-5-chloro-2-naphthalenesulfonamide hydrochloride]
AaDOP2 [3]
  Compound effect (percent receptor signaling in presence of test compound, relative lux units relative to the SCH23390 control): 97

## O=C(c1ccc(OCCN2CCCCC2)cc1)c1c(-c2ccc(O)cc2)sc2cc(O)ccc12 [Compound 1042, Raloxifene hydrochloride]
AaDOP2 [3]
  Compound effect (percent receptor signaling in presence of test compound, relative lux units relative to the SCH23390 control): 103

## CN(Cc1cnc2nc(N)nc(N)c2n1)c1ccc(C(=O)N[C@@H](CCC(=O)O)C(=O)O)cc1 [Compound 114, (-)Amethopterin]
AaDOP2 [3]
  Compound effect (percent receptor signaling in presence of test compound, relative lux units relative to the SCH23390 control): 116

## CCN(CC)CCCCCCCCOC(=O)c1cc(OC)c(OC)c(OC)c1.Cl [Compound 11, TMB-8 hydrochloride]
AaDOP2 [3]; [6]
  Compound effect (percent receptor signaling in presence of test compound, relative lux units relative to the SCH23390 control): 98%

## CC(C)(C)NCC(O)c1ccc(O)c(CO)c1.CC(C)(C)NCC(O)c1ccc(O)c(CO)c1.O=S(=O)(O)O (stereo not shown) [Compound 1102, Albuterol hemisulfate]
AaDOP2 [3]; [6]
  Compound effect (percent receptor signaling in presence of test compound, relative lux units relative to the SCH23390 control): 106%

## CNCC[C@@H](Oc1ccc(C(F)(F)F)cc1)c1ccccc1.Cl [Compound 513, R-(-)-Fluoxetine hydrochloride]
AaDOP2 [3]
  Compound effect (percent receptor signaling in presence of test compound, relative lux units relative to the SCH23390 control): 79

## COc1ccccc1N1CCN(CCN2C(=O)CC3(CCCC3)CC2=O)CC1.Cl.Cl [Compound 205, BMY 7378 dihydrochloride]
AaDOP2 [3]; [6]
  Compound effect (percent receptor signaling in presence of test compound, relative lux units relative to the SCH23390 control): 102%

## OC[C@H]1O[C@@H](n2cnc3c(N[C@H]4CC5CCC4C5)ncnc32)[C@H](O)[C@@H]1O (stereo partly drawn) [Compound 506, (S)-ENBA]
AaDOP2 [3]; [6]
  Compound effect (percent receptor signaling in presence of test compound, relative lux units relative to the SCH23390 control): 112%

## CC(NCCc1ccc(O)cc1)C(O)c1ccc(O)cc1 (stereo not shown) [Compound 1041, Ritodrine hydrochloride]
AaDOP2 [3]
  Compound effect (percent receptor signaling in presence of test compound, relative lux units relative to the SCH23390 control): 119

## Cc1ccc(=O)n(-c2ccccc2)c1 [Compound 931, Pirfenidone]
AaDOP2 [3]
  Compound effect (percent receptor signaling in presence of test compound, relative lux units relative to the SCH23390 control): 102

## O=C(O)[C@@H]1CCN1 [Compound 19, L-azetidine-2-carboxylic acid]
AaDOP2 [3]
  Compound effect (percent receptor signaling in presence of test compound, relative lux units relative to the SCH23390 control): 115

## CC(C)Cc1ccc(C(C)C(=O)O)cc1 (racemic) [Compound 646, (±)-Ibuprofen]
AaDOP2 [3]
  Compound effect (percent receptor signaling in presence of test compound, relative lux units relative to the SCH23390 control): 98

## C=CCc1ccccc1OCC(O)CNC(C)C (stereo not shown) [Compound 96, Alprenolol hydrochloride]
AaDOP2 [3]
  Compound effect (percent receptor signaling in presence of test compound, relative lux units relative to the SCH23390 control): 104

## N#CC(=C(/N)Sc1ccccc1N)/C(C#N)=C(/N)Sc1ccccc1N [Compound 1250, U0126]
AaDOP2 [3]
  Compound effect (percent receptor signaling in presence of test compound, relative lux units relative to the SCH23390 control): 108

## Cl.NCCS [Compound 787, Cysteamine hydrochloride]
AaDOP2 [3]; [6]
  Compound effect (percent receptor signaling in presence of test compound, relative lux units relative to the SCH23390 control): 94%

## CC(C(=O)O)c1cccc(C(=O)c2ccccc2)c1 (stereo not shown) [Compound 685, Ketoprofen]
AaDOP2 [3]
  Compound effect (percent receptor signaling in presence of test compound, relative lux units relative to the SCH23390 control): 101

## CCCN1CCC[C@@H](c2cccc(O)c2)C1.Cl [Compound 1004, S(-)-3PPP hydrochloride]
AaDOP2 [3]; [6]
  Compound effect (percent receptor signaling in presence of test compound, relative lux units relative to the SCH23390 control): 89%

## COC(=O)[C@@H]1[C@H]2C[C@H]3c4[nH]c5ccccc5c4CCN3C[C@@H]2CC[C@@H]1O [Compound 1273, Yohimbine hydrochloride]
AaDOP2 [3]
  Compound effect (percent receptor signaling in presence of test compound, relative lux units relative to the SCH23390 control): 85

— PMC3265452 (PLoS Neglected Tropical Diseases, 2012)
